Holding throughout (format): in vivo
One assay relates to narkosierten Hund. As to the kind of experiment: Blood pressure lowering in the anaesthetised dog (pentobarbital sodium), i.v. administration. Conditions: 1 mg/kg intravenous; for Blutdrucksenkung: significant lowering; for Dauer der Blutdrucksenkung: time over which lowering of at least 20 mm persists. Here is the method: (§1) 1)Die blutdrucksenkende Wirkung wurde am narkosierten Hund und an der Hochdruckratete bestimmt.
Hunde werden mit Pentobarbital-Natrium (^(R)Nembutal) (35 mg/kg i.p.) narkotisiert, die Prüfsubstanz in Dosen von 0,5-5 mg/kg. intravenös appliziert und die Blutdrucksenkung laufend über 30 bis 60 Minuten, bei längerer Wirksamkeit auch länger, fortlaufend registriert. Eine signifikante Senkung von mindestens 20 mm über mindestens 30 Minuten tritt z.B. nach Applikation der Verbindungen der Beispiele Nr. 6 und 31b in Dosen von jeweils 1 mg/kg ein.

Assay [1] relates to mit Strophantin vergiftete Hund. As to the kind of experiment: Antiarrhythmic effect in the strophanthin-poisoned dog (ventricular extrasystoles, ECG). Conditions: dog poisoned with K-Strophanthin i.v. infusion until frequent ventricular extrasystoles; 1 mg/kg intravenous; active = arrhythmia completely abolished. The source says: 2) Zur Prüfung auf antiarrythmische Wirkung wird der mit Strophantin vergiftete Hund verwendet (Methode: Laszlo Szekeres, Institute of Pharmacology, University Medical School of Szeged, Hungary, Methods for Evaluating Antiarrhytmic Agents" in Methods in Pharmacology I, New York 1971, Herausgeber A. Schwartz).

The test system of assay [2] is genetischen Hochdruckratte. As to the kind of experiment: Blood pressure lowering in the genetically hypertensive rat, oral administration. As to conditions: 15 mg/kg per os, within 18 hours. Here is the method: as §1
Zur Prüfung an der genetischen Hochdruckratte werden die Substanzen oral verabreicht. Die Verbindung des Beispiels 31b bewirkt bei einer Dosierung von 15 mg/kg per os innerhalb von 18 Stunden einen Blutdruckabfall von 30 - 50 mm.

Consider three compounds from patent publication EP0007525A1, “2-(4-Aminopiperidino)-3.4-dihydroquinoline derivatives, processes for their preparation, pharmaceutical compositions containing them and their use” (HOECHST AKTIENGESELLSCHAFT, priority 1978, dated 1980).

For `COc1cc2c(cc1OC)N=C(N1CCC(NC(=O)c3ccccc3)CC1)CC2` [Beispiel 6], in the assay on narkosierten Hund, the Blutdrucksenkung is ≥ 20 mm and the “Dauer der Blutdrucksenkung” value was ≥ 30 Minuten.
Consider `CC(C)(C)OC(=O)NC1CCN(C2=Nc3ccccc3CC2)CC1` [Beispiel 31a, 2-(4-Tert.butyloxycarbonylamino-1-piperidyl)-3,4-dihydro-chinolin], for which the “antiarrythmische Wirkung (Beseitigung der Rhythmusstörungen)” value in assay [1] is reported as “Rhythmusstörungen völlig zu beseitigen vermochte”.
On to `NC1CCN(C2=Nc3ccccc3CC2)CC1` [Beispiel 31b, 2-(4-Amino-1-piperidyl)-3,4-dihydrochinolin], for which, in assay [2], the Blutdruckabfall is given as 30 - 50 mm. Also, in the assay on narkosierten Hund, the Blutdrucksenkung is reported as ≥ 20 mm and the “Dauer der Blutdrucksenkung” value is ≥ 30 Minuten.
